Test results: patent publication US20020031795A1, “Nitrocoumarins for detecting all micro-organisms” (priority 1998, published 2002)

Experiments:
Type in all cases: cell-based
Enterobacter agglomerans [1] = experiment: Reduction of the indicator by wild Enterobacteriaceae strain (fluorescence); conditions: 0.17 mmol/l
Method: (§1) The E. coli was grown for 24 hours at 35° C. on Columbia agar supplemented with sheep blood. The bacteria were then resuspended in sterile, distilled water and their density was adjusted to 0.5 on the MacFarland scale (i.e. about 10^8 cells/ml). This suspension was then diluted 100-fold in sterile Mueller-Hinton broth (i.e. to a final density of about 10^6 cells/ml).
(§2) Fifty microliters of each nitrocoumarin solution plus 50 μl of bacterial suspension were then added to the wells of a microtiter plate. The plates were incubated at 35° C. and the optical density and fluorescence of each well was read every 30 min for a total of 4 hours. Optical density (690 nm) readings were made using an Anthos 2001 spectrophotometer (Labtech International Limited), and fluorescence (excitation at 365 nm and emission at 440 nm) readings were made on a Biolite F1 2001 fluorometer (Labtech International Limited).
(§3) This experiment was designed to investigate whether or not it would be possible to detect Enterobacteriaceae other than E. coli using 7-nitrocoumarin-3-carboxylic acid. The conditions for this experiment were similar to those described for the first experiment (section A).
(§4) Five wild strains belonging to the species Citrobacter diversus, Enterobacter agglomerans, Hafnia alvei, Morganella morganii and Shigella sonnei were tested

Shigella sonnei [2] = experiment: as above; conditions: 0.17 mmol/l
Method: as §1, §2, §3, §4

Morganella morganii [3] = experiment: as above; conditions: 0.17 mmol/l
Method: as §1, §2, §3, §4

Hafnia alvei [4] = experiment: as above; conditions: 0.17 mmol/l
Method: as §1, §2, §3, §4

Citrobacter diversus [5] = experiment: as above; conditions: 0.17 mmol/l
Method: as §1, §2, §3, §4

[6] = test system: sixteen different microorganisms; experiment: Growth indicator test on sixteen different microorganisms (summary)
Method: This experiment was performed to test 7-nitrocoumarin-3-carboxylic acid on sixteen (16) different types of microorganism, including one yeast species.
A mass of 10 mg of the indicator was dissolved in 4 ml of hot, distilled water and this solution was then added to 96 ml of Trypticase Soy broth. The resultant mixture was sterile-filtered.
All the microorganisms were grown for 24 hours in Trypticase Soy broth at 35° C. Each culture was then diluted 1,000-fold in Trypticase Soy broth and then serial 10-fold dilutions were made in more Trypticase Soy broth until the test aliquot contained no more microbial cells.
The resultant dilutions ranged from 10^−3 to 10^−13.
Fifty microliters of each dilution plus 50 μl of Trypticase Soy broth were added to wells of a microtiter plate with or without 7-nitrocoumarin-3-carboxylic acid.
The plates were read (T zero) and then incubated at 35° C. before being read again after 24 hours. Two different readings were made at each time point: […]
of the fluorescence (excitation at 365 nm and emission at 440 nm), using a Biolite F1 2001 fluorometer (Labtech International Limited), for wells containing 7-nitrocoumarin-3-carboxylic acid.
In order to check the correlation between growth and the fluorescence results, the contents of each well were seeded on Columbia agar supplemented with sheep blood.

Enterobacter agglomerans [7] = experiment: Growth of wild Enterobacteriaceae strain in Mueller-Hinton broth (optical density); conditions: 0.17 mmol/l
Method: as §1, §2, §3, §4

Shigella sonnei [8] = experiment: as above; conditions: 0.17 mmol/l
Method: as §1, §2, §3, §4

Morganella morganii [9] = experiment: as above; conditions: 0.17 mmol/l
Method: as §1, §2, §3, §4

Hafnia alvei [10] = experiment: as above; conditions: 0.17 mmol/l
Method: as §1, §2, §3, §4

Citrobacter diversus [11] = experiment: as above; conditions: 0.17 mmol/l
Method: as §1, §2, §3, §4

[12] = test system: five different species of Enterobacteriaceae; experiment: Reduction by wild strains of five species of Enterobacteriaceae (summary); conditions: 0.17 mmol/l
Method: as §3, §4

## O=C(O)c1cc2ccc([N+](=O)[O-])cc2oc1=O [7-nitrocoumarin-3-carboxylic acid]
Enterobacter agglomerans [1]; 0 min
  Fluorescent signal: 0
Enterobacter agglomerans [1]; 30 min
  Fluorescent signal: −15
Enterobacter agglomerans [1]; 60 min
  Fluorescent signal: −3
Enterobacter agglomerans [1]; 90 min
  Fluorescent signal: 9
Enterobacter agglomerans [1]; 120 min
  Fluorescent signal: 74
Enterobacter agglomerans [1]; 150 min
  Fluorescent signal: 199
Enterobacter agglomerans [1]; 180 min
  Fluorescent signal: 501
Enterobacter agglomerans [1]; 210 min
  Fluorescent signal: 1246
Enterobacter agglomerans [1]; 240 min
  Fluorescent signal: 4099
Shigella sonnei [2]; 0 min
  Fluorescent signal: 0
Shigella sonnei [2]; 30 min
  Fluorescent signal: −9
Shigella sonnei [2]; 60 min
  Fluorescent signal: 15
Shigella sonnei [2]; 90 min
  Fluorescent signal: 52
Shigella sonnei [2]; 120 min
  Fluorescent signal: 162
Shigella sonnei [2]; 150 min
  Fluorescent signal: 434
Shigella sonnei [2]; 180 min
  Fluorescent signal: 1108
Shigella sonnei [2]; 210 min
  Fluorescent signal: 3095
Shigella sonnei [2]; 240 min
  Fluorescent signal: 8567
Morganella morganii [3]; 0 min
  Fluorescent signal: 0
Morganella morganii [3]; 30 min
  Fluorescent signal: −42
Morganella morganii [3]; 60 min
  Fluorescent signal: −24
Morganella morganii [3]; 90 min
  Fluorescent signal: −15
Morganella morganii [3]; 120 min
  Fluorescent signal: 31
Morganella morganii [3]; 150 min
  Fluorescent signal: 95
Morganella morganii [3]; 180 min
  Fluorescent signal: 403
Morganella morganii [3]; 210 min
  Fluorescent signal: 2170
Morganella morganii [3]; 240 min
  Fluorescent signal: 8128
Hafnia alvei [4]; 0 min
  Fluorescent signal: 0
Hafnia alvei [4]; 30 min
  Fluorescent signal: −24
Hafnia alvei [4]; 60 min
  Fluorescent signal: −30
Hafnia alvei [4]; 90 min
  Fluorescent signal: 0
Hafnia alvei [4]; 120 min
  Fluorescent signal: 40
Hafnia alvei [4]; 150 min
  Fluorescent signal: 122
Hafnia alvei [4]; 180 min
  Fluorescent signal: 260
Hafnia alvei [4]; 210 min
  Fluorescent signal: 775
Hafnia alvei [4]; 240 min
  Fluorescent signal: 2048
Citrobacter diversus [5]; 0 min
  Fluorescent signal: 0
Citrobacter diversus [5]; 30 min
  Fluorescent signal: 3
Citrobacter diversus [5]; 60 min
  Fluorescent signal: 3
Citrobacter diversus [5]; 90 min
  Fluorescent signal: 34
Citrobacter diversus [5]; 120 min
  Fluorescent signal: 92
Citrobacter diversus [5]; 150 min
  Fluorescent signal: 281
Citrobacter diversus [5]; 180 min
  Fluorescent signal: 546
Citrobacter diversus [5]; 210 min
  Fluorescent signal: 1209
Citrobacter diversus [5]; 240 min
  Fluorescent signal: 5393
[6]; 24 hours, Trypticase Soy broth
  Correlation of fluorescence readings with microbial growth (in words): correlate closely with microbial growth patterns for all the species tested
[6]; limiting dilution
  Sensitivity of the assay (in words): capable of detecting a single viable cell
Enterobacter agglomerans [7]; 0 min
  Optical density (690 nm): 0.000
Enterobacter agglomerans [7]; 30 min
  Optical density (690 nm): −0.002
Enterobacter agglomerans [7]; 60 min
  Optical density (690 nm): 0.002
Enterobacter agglomerans [7]; 90 min
  Optical density (690 nm): 0.006
Enterobacter agglomerans [7]; 120 min
  Optical density (690 nm): 0.027
Enterobacter agglomerans [7]; 150 min
  Optical density (690 nm): 0.057
Enterobacter agglomerans [7]; 180 min
  Optical density (690 nm): 0.155
Enterobacter agglomerans [7]; 210 min
  Optical density (690 nm): 0.225
Enterobacter agglomerans [7]; 240 min
  Optical density (690 nm): 0.323
Shigella sonnei [8]; 0 min
  Optical density (690 nm): 0.000
Shigella sonnei [8]; 30 min
  Optical density (690 nm): −0.001
Shigella sonnei [8]; 60 min
  Optical density (690 nm): 0.000
Shigella sonnei [8]; 90 min
  Optical density (690 nm): 0.002
Shigella sonnei [8]; 120 min
  Optical density (690 nm): 0.013
Shigella sonnei [8]; 150 min
  Optical density (690 nm): 0.042
Shigella sonnei [8]; 180 min
  Optical density (690 nm): 0.097
Shigella sonnei [8]; 210 min
  Optical density (690 nm): 0.159
Shigella sonnei [8]; 240 min
  Optical density (690 nm): 0.246
Morganella morganii [9]; 0 min
  Optical density (690 nm): 0.000
Morganella morganii [9]; 30 min
  Optical density (690 nm): −0.010
Morganella morganii [9]; 60 min
  Optical density (690 nm): −0.010
Morganella morganii [9]; 90 min
  Optical density (690 nm): −0.005
Morganella morganii [9]; 120 min
  Optical density (690 nm): 0.003
Morganella morganii [9]; 150 min
  Optical density (690 nm): 0.020
Morganella morganii [9]; 180 min
  Optical density (690 nm): 0.064
Morganella morganii [9]; 210 min
  Optical density (690 nm): 0.116
Morganella morganii [9]; 240 min
  Optical density (690 nm): 0.187
Hafnia alvei [10]; 0 min
  Optical density (690 nm): 0.000
Hafnia alvei [10]; 30 min
  Optical density (690 nm): −0.001
Hafnia alvei [10]; 60 min
  Optical density (690 nm): 0.004
Hafnia alvei [10]; 90 min
  Optical density (690 nm): 0.009
Hafnia alvei [10]; 120 min
  Optical density (690 nm): 0.016
Hafnia alvei [10]; 150 min
  Optical density (690 nm): 0.034
Hafnia alvei [10]; 180 min
  Optical density (690 nm): 0.092
Hafnia alvei [10]; 210 min
  Optical density (690 nm): 0.149
Hafnia alvei [10]; 240 min
  Optical density (690 nm): 0.246
Citrobacter diversus [11]; 0 min
  Optical density (690 nm): 0.000
Citrobacter diversus [11]; 30 min
  Optical density (690 nm): 0.000
Citrobacter diversus [11]; 60 min
  Optical density (690 nm): 0.005
Citrobacter diversus [11]; 90 min
  Optical density (690 nm): 0.011
Citrobacter diversus [11]; 120 min
  Optical density (690 nm): 0.020
Citrobacter diversus [11]; 150 min
  Optical density (690 nm): 0.050
Citrobacter diversus [11]; 180 min
  Optical density (690 nm): 0.092
Citrobacter diversus [11]; 210 min
  Optical density (690 nm): 0.143
Citrobacter diversus [11]; 240 min
  Optical density (690 nm): 0.250
[12]
  Reduction by wild strains of five Enterobacteriaceae species (in words): All the strains tested were found to be able to reduce this compound
